{
  "source": "patent US5358947A",
  "about": "“Angiotensin II receptor blocking 2,3-substituted pyrazolo[1,5-a]-1,3,5-triazin-4(3H)-ones” (American Cyanamid Company, priority 1993, dated 1994)",
  "tested_on": "ANGIOTENSIN II (AII) VASOPRESSOR RESPONSE",
  "experiment": "AII Challenge: angiotensin II (AII) vasopressor response in conscious rats",
  "type": "in vivo",
  "set-up": "Response After AII / Change / Average Change: unit not given here",
  "details": "10 mg/kg i.v.; for Change / Response After AII / Control Before AII: individual rat; for Control Before AII: in mmHg (unit assumed); for % Inhibition / Average Change: n = 2",
  "how_it_was_run": "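Conscious male Okamoto-Aoki SHR (16-20 weeks, ~330 g), aorta/vena cava cannulated, challenged with AII 0.05 and 0.1 ug/kg i.v. before and at 30-300 min after compound dosed i.v., i.p. or orally. Systolic pressure rise expressed relative to each rat's predose response (100%).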",
  "key": {"[1]": {"details": "AII 0.05 mcg/kg, 30 min post dose"}, "[2]": {"details": "AII 0.05 mcg/kg, 30 min post dose, listed as Ex. 11"}, "[3]": {"details": "AII 0.05 mcg/kg, 60 min post dose, listed as Ex. 11"}, "[4]": {"details": "AII 0.05 mcg/kg, 60 min post dose"}, "[5]": {"details": "AII 0.05 mcg/kg, 90 min post dose"}, "[6]": {"details": "AII 0.05 mcg/kg, 90 min post dose, listed as Ex. 11"}, "[7]": {"details": "AII 0.05 mcg/kg, 120 min post dose"}, "[8]": {"details": "AII 0.05 mcg/kg, 120 min post dose, listed as Ex. 11"}, "[9]": {"details": "AII 0.05 mcg/kg, 180 min post dose"}, "[10]": {"details": "AII 0.05 mcg/kg, 180 min post dose, listed as Ex. 11"}, "[11]": {"details": "AII 0.05 mcg/kg, 240 min post dose"}, "[12]": {"details": "AII 0.05 mcg/kg, 240 min post dose, listed as Ex. 11"}, "[13]": {"details": "AII 0.05 mcg/kg, 300 min post dose"}, "[14]": {"details": "AII 0.05 mcg/kg, 300 min post dose, listed as Ex. 11"}, "[15]": {"details": "AII 0.1 mcg/kg, 30 min post dose"}, "[16]": {"details": "AII 0.1 mcg/kg, 30 min post dose, listed as Ex. 11"}, "[17]": {"details": "AII 0.1 mcg/kg, 60 min post dose"}, "[18]": {"details": "AII 0.1 mcg/kg, 90 min post dose"}, "[19]": {"details": "AII 0.1 mcg/kg, 90 min post dose, listed as Ex. 11"}, "[20]": {"details": "AII 0.1 mcg/kg, 120 min post dose"}, "[21]": {"details": "AII 0.1 mcg/kg, 120 min post dose, listed as Ex. 11"}, "[22]": {"details": "AII 0.1 mcg/kg, 180 min post dose"}, "[23]": {"details": "AII 0.1 mcg/kg, 240 min post dose"}, "[24]": {"details": "AII 0.1 mcg/kg, 240 min post dose, listed as Ex. 11"}, "[25]": {"details": "AII 0.1 mcg/kg, 300 min post dose"}, "[26]": {"details": "AII 0.1 mcg/kg, 300 min post dose, listed as Ex. 11"}},
  "note": "Values joined by “and” are separate entries in the source; they are usually repeats but may differ in a detail not shown here. Equal values may be shown once.",
  "data": [
    {"compound": "CCCCc1nc2cc(-c3ccco3)nn2c(=O)n1Cc1ccc(-c2ccccc2-c2nnn[nH]2)cc1", "note": "[Example 11, 2-Butyl-7-(2-furanyl)-3-[[2'-(1H-tetrazol-5-yl)[1,1'-biphenyl]-4-yl]methyl]pyrazolo[1,5-a]-1,3,5-triazin-4(3H)-one]", "values": [
      {"measurement": "Change", "setting": "[1]", "value": 0},
      {"measurement": "Response After AII", "setting": "[1]", "value": 200},
      {"measurement": "Response After AII", "setting": "[2]", "value": 205},
      {"measurement": "Control Before AII", "setting": "[2]", "value": "200 and 205"},
      {"measurement": "% Inhibition", "setting": "[1]", "value": 100, "unit": "%"},
      {"measurement": "Average Change", "setting": "[1]", "value": 0},
      {"measurement": "Change", "setting": "[3]", "value": "13 and 5"},
      {"measurement": "Response After AII", "setting": "[3]", "value": "198 and 200"},
      {"measurement": "Control Before AII", "setting": "[3]", "value": "185 and 195"},
      {"measurement": "% Inhibition", "setting": "[4]", "value": 76, "unit": "%"},
      {"measurement": "Average Change", "setting": "[4]", "value": 9},
      {"measurement": "Response After AII", "setting": "[5]", "value": 200},
      {"measurement": "Change", "setting": "[6]", "value": "10 and 15"},
      {"measurement": "Control Before AII", "setting": "[6]", "value": "190 and 185"},
      {"measurement": "% Inhibition", "setting": "[5]", "value": 67, "unit": "%"},
      {"measurement": "Average Change", "setting": "[5]", "value": 12.5},
      {"measurement": "Response After AII", "setting": "[7]", "value": 195},
      {"measurement": "Control Before AII", "setting": "[7]", "value": 185},
      {"measurement": "Change", "setting": "[8]", "value": "20 and 10"},
      {"measurement": "Response After AII", "setting": "[8]", "value": 205},
      {"measurement": "% Inhibition", "setting": "[7]", "value": 60, "unit": "%"},
      {"measurement": "Average Change", "setting": "[7]", "value": 15},
      {"measurement": "Response After AII", "setting": "[9]", "value": 195},
      {"measurement": "Control Before AII", "setting": "[9]", "value": 185},
      {"measurement": "Change", "setting": "[10]", "value": "10 and 20"},
      {"measurement": "Response After AII", "setting": "[10]", "value": 205},
      {"measurement": "% Inhibition", "setting": "[9]", "value": 60, "unit": "%"},
      {"measurement": "Average Change", "setting": "[9]", "value": 15},
      {"measurement": "Control Before AII", "setting": "[11]", "value": 185},
      {"measurement": "Change", "setting": "[12]", "value": "25 and 15"},
      {"measurement": "Response After AII", "setting": "[12]", "value": "210 and 200"},
      {"measurement": "% Inhibition", "setting": "[11]", "value": 47, "unit": "%"},
      {"measurement": "Average Change", "setting": "[11]", "value": 20},
      {"measurement": "Control Before AII", "setting": "[13]", "value": 185},
      {"measurement": "Change", "setting": "[14]", "value": "30 and 20"},
      {"measurement": "Response After AII", "setting": "[14]", "value": "215 and 205"},
      {"measurement": "% Inhibition", "setting": "[13]", "value": 33, "unit": "%"},
      {"measurement": "Average Change", "setting": "[13]", "value": 25},
      {"measurement": "Response After AII", "setting": "[15]", "value": 192},
      {"measurement": "Change", "setting": "[16]", "value": "2 and 0"},
      {"measurement": "Response After AII", "setting": "[16]", "value": 205},
      {"measurement": "Control Before AII", "setting": "[16]", "value": "190 and 205"},
      {"measurement": "% Inhibition", "setting": "[15]", "value": 98, "unit": "%"},
      {"measurement": "Average Change", "setting": "[15]", "value": 1},
      {"measurement": "Change", "setting": "[17]", "value": 10},
      {"measurement": "Response After AII", "setting": "[17]", "value": 205},
      {"measurement": "Control Before AII", "setting": "[17]", "value": 195},
      {"measurement": "% Inhibition", "setting": "[17]", "value": 79, "unit": "%"},
      {"measurement": "Average Change", "setting": "[17]", "value": 10},
      {"measurement": "Response After AII", "setting": "[18]", "value": 210},
      {"measurement": "Control Before AII", "setting": "[18]", "value": 190},
      {"measurement": "Change", "setting": "[19]", "value": "20 and 15"},
      {"measurement": "Response After AII", "setting": "[19]", "value": 205},
      {"measurement": "% Inhibition", "setting": "[18]", "value": 63, "unit": "%"},
      {"measurement": "Average Change", "setting": "[18]", "value": 17.5},
      {"measurement": "Response After AII", "setting": "[20]", "value": 200},
      {"measurement": "Control Before AII", "setting": "[20]", "value": 185},
      {"measurement": "Change", "setting": "[21]", "value": "20 and 15"},
      {"measurement": "Response After AII", "setting": "[21]", "value": 205},
      {"measurement": "% Inhibition", "setting": "[20]", "value": 63, "unit": "%"},
      {"measurement": "Average Change", "setting": "[20]", "value": 17.5},
      {"measurement": "Change", "setting": "[22]", "value": 25},
      {"measurement": "Response After AII", "setting": "[22]", "value": 210},
      {"measurement": "Control Before AII", "setting": "[22]", "value": 185},
      {"measurement": "% Inhibition", "setting": "[22]", "value": 47, "unit": "%"},
      {"measurement": "Average Change", "setting": "[22]", "value": 25},
      {"measurement": "Response After AII", "setting": "[23]", "value": 210},
      {"measurement": "Control Before AII", "setting": "[23]", "value": 185},
      {"measurement": "Change", "setting": "[24]", "value": "30 and 25"},
      {"measurement": "Response After AII", "setting": "[24]", "value": 205},
      {"measurement": "Control Before AII", "setting": "[24]", "value": 175},
      {"measurement": "% Inhibition", "setting": "[23]", "value": 42, "unit": "%"},
      {"measurement": "Average Change", "setting": "[23]", "value": 27.5},
      {"measurement": "Response After AII", "setting": "[25]", "value": 210},
      {"measurement": "Control Before AII", "setting": "[25]", "value": 185},
      {"measurement": "Change", "setting": "[26]", "value": "25 and 30"},
      {"measurement": "Response After AII", "setting": "[26]", "value": 215},
      {"measurement": "% Inhibition", "setting": "[25]", "value": 42, "unit": "%"},
      {"measurement": "Average Change", "setting": "[25]", "value": 27.5}
    ]}
  ]
}
